Read-outs that look alike come from different tables or passages of the source.
Biological target: G551D‐CFTR (Homo sapiens, UniProt P13569, G551D)
Test: Single-channel recording in excised inside-out membrane patches, G551D‐CFTR
Assay type: biochemical
Set-up: expressed in transfected cells; BHK cells from MD Amaral
Settings: for enhancement of Po(app): each compound 10 μM, alone or together; for Emax: read-out: Maximal effect (%) (95% CI)
Experimental: For CFTR studies using automated electrophysiology and single-channel recording, we used baby hamster kidney (BHK) cells (RRID:CVCL_1915) and human embryonic kidney (HEK) 293 cells (RRID:CVCL_0045) stably expressing wild-type human CFTR and the CFTR variants F508del- and […] et al., [2002]; Xu et al., [2014]). […] HEK cells expressing CFTR variants were generated using the Flp-InTM system as described above for F508del- and G551D-CFTR-expressing FRT cells. They were cultured in Dulbecco's modified Eagle's medium (glucose, 1.5 g·L^-1; sodium pyruvate, 110 mg·L^-1) supplemented with 10% FBS (PAA Laboratories), GlutaMAXTM and hygromycin-B (150 μg·ml^-1; InvitrogenTM, Thermo Fisher Scientific) at 37°C in a humidified atmosphere with 5% CO2. Prior to study, F508del-CFTR expressed in HEK cells was trafficked to the plasma membrane by low temperature incubation (27°C for 24-72 h). The single-channel behaviour of human CFTR in excised membrane patches from different mammalian cell lines heterologously expressing CFTR is equivalent (wild-type CFTR, Chen et al., [2009]; F508del-CFTR, Bose et al., [2019]; and G551D-CFTR, J Liu, Y Wang, Z Cai, and DN Sheppard, unpublished observations). CFTR Cl^- channels were recorded in excised inside-out membrane patches using an Axopatch 200B patch-clamp amplifier and pCLAMP software (version 10.3) (RRID:SCR_011323) (both from Molecular Devices, San Jose, CA, USA) (Sheppard & Robinson, [1997]). […] Within 2 min after membrane patch excision, we added the catalytic subunit of protein kinase A (PKA; 75 nM) and ATP (1 mM) to the intracellular solution to activate CFTR Cl^- channels. To minimise channel rundown, we added PKA and millimolar concentrations of ATP to all intracellular solutions and clamped voltage at -50 mV. […] We reduced the ATP concentration when testing CFTR potentiators on wild-type CFTR to observe their effects more clearly. […] Instead, specific interventions with CFTR potentiators were compared with the pre-intervention control period made with the same concentration of ATP and PKA, but without test compounds. […] F508del-CFTR, n ≤ 4; G551D-CFTR, n ≤ 5). To determine channel number, we used the maximum number of simultaneous channel openings observed during an experiment (Cai et al., [2006]). To minimise errors, we used experimental conditions that robustly potentiate channel activity and verified that recordings were of sufficient length to ascertain the correct number of channels ([…] et al., [1994]). […] Despite our precautions, we cannot exclude the possibility of unobserved G551D-CFTR Cl^- channels in excised membrane patches causing Po values for G551D-CFTR to be […]. Therefore, Po values for G551D-CFTR are expressed as apparent Po (Po(app)) values. Single-channel currents were directly acquired to a computer hard disc after filtering at a corner frequency (f c) of 500 Hz with an eight-pole Bessel filter (model LHBF-48×; npi electronic GmbH, Tamm, Germany) and digitising at a sampling rate of 5 kHz using a Digidata 1440A interface (Molecular Devices) and pCLAMP software. To measure single-channel current amplitude (i), Gaussian distributions were fit to current amplitude histograms. For Po and burst analyses, lists of open- and closed-times were created using a half-amplitude crossing criterion for event detection and dwell-time histograms constructed as previously described (Sheppard & Robinson, [1997]); transitions < 1 ms were excluded from the analysis (eight-pole Bessel filter rise time [T 10-90] ~ 0.73 ms at f c = 500 Hz). Histograms were fitted with one or more component exponential functions using the maximum likelihood method. […] The mean interburst interval (TIBI) was calculated using the equation (Cai et al., [2006]): (1) Po=Tb/TMBD+TIBI, where T b = (mean burst duration) × (open probability within a burst). Mean burst duration (T MBD) and open probability within a burst (Po[burst]) were determined directly from experimental data using pCLAMP software. […]

[1] = G551D‐CFTR Cl− channels, excised inside-out patches, 23°C, data normalised to ivacaftor 1 μM, read-out: EC50 (μM) (95% CI)
[2] = G551D‐CFTR, ATP 1 mM, PKA 75 nM, ~23°C
[3] = G551D‐CFTR, ATP 1 mM, PKA 75 nM, ~23°C, read-out: EC50 for potentiation of Po(app)
[4] = G551D‐CFTR, compound 10 μM, ATP 0.1–3 mM

Sequence of G551D‐CFTR (P13569 whole entry G551D): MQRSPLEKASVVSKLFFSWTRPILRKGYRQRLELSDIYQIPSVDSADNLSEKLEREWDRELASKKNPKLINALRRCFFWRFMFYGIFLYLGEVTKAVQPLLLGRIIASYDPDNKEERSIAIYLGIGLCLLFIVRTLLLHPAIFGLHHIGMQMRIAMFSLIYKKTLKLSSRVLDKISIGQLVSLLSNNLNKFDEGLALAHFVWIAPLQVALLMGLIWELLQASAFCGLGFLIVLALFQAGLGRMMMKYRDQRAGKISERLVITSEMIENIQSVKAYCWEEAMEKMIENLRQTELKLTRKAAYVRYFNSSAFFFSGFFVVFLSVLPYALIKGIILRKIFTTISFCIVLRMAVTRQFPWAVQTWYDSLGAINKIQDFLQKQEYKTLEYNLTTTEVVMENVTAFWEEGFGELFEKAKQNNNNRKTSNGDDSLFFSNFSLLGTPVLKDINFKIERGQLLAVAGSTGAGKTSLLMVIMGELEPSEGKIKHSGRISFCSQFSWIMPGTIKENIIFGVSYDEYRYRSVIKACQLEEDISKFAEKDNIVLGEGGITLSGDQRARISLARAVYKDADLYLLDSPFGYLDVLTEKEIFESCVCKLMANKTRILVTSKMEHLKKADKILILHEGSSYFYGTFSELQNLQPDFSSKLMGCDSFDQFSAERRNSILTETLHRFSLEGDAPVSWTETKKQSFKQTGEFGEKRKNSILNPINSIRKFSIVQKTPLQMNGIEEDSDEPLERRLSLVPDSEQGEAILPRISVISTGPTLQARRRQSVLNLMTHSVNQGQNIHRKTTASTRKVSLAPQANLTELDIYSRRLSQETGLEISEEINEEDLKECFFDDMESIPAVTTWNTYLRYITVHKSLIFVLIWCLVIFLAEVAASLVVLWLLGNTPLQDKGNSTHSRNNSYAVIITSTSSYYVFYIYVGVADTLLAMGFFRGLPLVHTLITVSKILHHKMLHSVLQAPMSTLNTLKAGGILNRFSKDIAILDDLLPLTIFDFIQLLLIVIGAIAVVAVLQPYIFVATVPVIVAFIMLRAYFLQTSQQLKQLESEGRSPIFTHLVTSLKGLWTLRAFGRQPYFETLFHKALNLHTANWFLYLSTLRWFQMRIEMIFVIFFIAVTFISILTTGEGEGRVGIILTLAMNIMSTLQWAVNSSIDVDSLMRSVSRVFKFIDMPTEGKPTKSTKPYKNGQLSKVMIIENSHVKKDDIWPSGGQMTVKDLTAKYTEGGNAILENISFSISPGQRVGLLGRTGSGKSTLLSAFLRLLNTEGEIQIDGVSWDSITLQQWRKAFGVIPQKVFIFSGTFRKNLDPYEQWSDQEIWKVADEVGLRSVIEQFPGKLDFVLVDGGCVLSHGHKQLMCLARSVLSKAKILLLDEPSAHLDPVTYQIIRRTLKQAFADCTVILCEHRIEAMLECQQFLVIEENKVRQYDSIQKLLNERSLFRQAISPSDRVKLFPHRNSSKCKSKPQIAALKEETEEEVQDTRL

SMILES: Cc1ncccc1CNC(=O)c1ccc2c(c1)CC[C@H]1C[C@](O)(CCC(F)(F)F)CC[C@]21Cc1ccccc1 (racemic) [CP‐628006, rac‐(4bR,7R,8aS)‐4b‐benzyl‐7‐hydroxy‐N‐((2‐methylpyridin‐3‐yl)methyl)‐7‐(3,3,3‐trifluoropropyl)‐4b,5,6,7,8,8a,9,10‐octahydrophenanthrene‐2‐carboxamide]
- EC50 [1]: 0.17 µM
- Po(app) max [2]: 0.38
- EC50 [3]: 0.38 µM
- Po(app) max of ATP-dependence in presence of compound [4]: 0.30
- enhancement of Po(app) (G551D‐CFTR, ATP 1 mM): 71 ± 30 fold
- Emax: 145%

SMILES: CC(C)(C)c1cc(C(C)(C)C)c(NC(=O)c2c[nH]c3ccccc3c2=O)cc1O [ivacaftor, reference compound]
- EC50 [1]: 0.036 µM
- Po(app) max [2]: 0.31
- EC50 [3]: 0.14 µM
- ATP-dependence of G551D‐CFTR activity in presence of compound [4]: unaffected by altering the ATP concentration
- enhancement of Po(app) (G551D‐CFTR, ATP 1 mM): 44 ± 12 fold
- Emax: 96.7%
